Data as given in ChEMBL document CHEMBL1134211, “8-Carboxamidocyclazocine analogues: redefining the structure-activity relationships of 2,6-methano-3-benzazocines” (Bioorg Med Chem Lett, 2001).

Legend:
[1] = Displacement of [3H]naltrindole from Opioid receptor delta 1 of guinea pig brain membranes
Mu-type opioid receptor = Mu-type opioid receptor (Cavia porcellus, UniProt P97266); assay: Displacement of [3H]DAMGO from Opioid receptor mu 1 of guinea pig brain membranes
[2] = target: Kappa-type opioid receptor (Cavia porcellus, UniProt P41144); assay: Displacement of [3H]U-69593 from Opioid receptor kappa 1 of guinea pig brain membranes
Chain of Kappa-type opioid receptor (P41144 whole entry): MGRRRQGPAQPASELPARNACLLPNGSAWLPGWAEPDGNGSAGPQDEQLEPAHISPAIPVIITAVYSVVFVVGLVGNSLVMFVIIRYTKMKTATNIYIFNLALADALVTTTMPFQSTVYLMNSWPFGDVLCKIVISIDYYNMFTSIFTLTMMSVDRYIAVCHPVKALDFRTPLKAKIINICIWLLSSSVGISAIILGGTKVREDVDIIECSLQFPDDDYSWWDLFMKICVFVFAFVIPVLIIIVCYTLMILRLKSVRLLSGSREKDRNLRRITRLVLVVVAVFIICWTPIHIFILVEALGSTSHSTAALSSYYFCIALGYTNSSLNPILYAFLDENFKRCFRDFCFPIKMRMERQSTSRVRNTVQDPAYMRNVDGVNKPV

Chain of Mu-type opioid receptor (P97266 whole entry): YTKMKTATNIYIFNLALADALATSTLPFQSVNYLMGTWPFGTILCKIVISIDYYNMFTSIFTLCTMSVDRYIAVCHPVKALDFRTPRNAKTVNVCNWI

Structure (SMILES)	Ki [1]	Ki (Mu-type opioid receptor)	Ki [2]
C[C@H]1[C@H]2Cc3ccc(O)cc3[C@@]1(C)CCN2CC1CC1 (racemic)	0.0011 µM	–	–
C[C@H]1C2Cc3ccc(C(=O)O)cc3[C@@]1(C)CCN2CC1CC1 (mixture of isomers)	–	0.058 µM	0.031 µM
C[C@H]1C2Cc3ccc(C(=O)Nc4ccccc4)cc3[C@@]1(C)CCN2CC1CC1 (mixture of isomers)	–	0.74 µM	0.46 µM
C[C@H]1C2Cc3ccc(C(=O)N(C)C)cc3[C@@]1(C)CCN2CC1CC1 (mixture of isomers)	–	3 µM	2.5 µM
C[C@H]1C2Cc3ccc(C#N)cc3[C@@]1(C)CCN2CC1CC1 (mixture of isomers)	–	0.54 µM	–
CNC(=O)c1ccc2c(c1)[C@@]1(C)CCN(CC3CC3)C(C2)[C@@H]1C (mixture of isomers)	–	0.024 µM	0.0026 µM
C[C@@H]1[C@@H]2Cc3ccc(O)cc3[C@@]1(C)CN2CC1CC1	1.1 µM	–	–
COC(=O)c1ccc2c(c1)[C@@]1(C)CCN(CC3CC3)C(C2)[C@@H]1C (mixture of isomers)	–	0.045 µM	–
CC[C@@]12CCN(CC3CC3)C(C(=O)c3ccc(C(N)=O)cc31)[C@@H]2C (mixture of isomers)	–	0.0012 µM	0.0007 µM
